From article PMC12162962, “The inhibitory potential of three scorpion venom peptides against multidrug-resistant Klebsiella pnemoniae” (Frontiers in Microbiology, 2025)
No end group written: not given here.

Key:
K. pneumoniae = experiment: microbe, parasite or virus in culture; type: cell-based, Klebsiella pneumoniae
Description: To assess the combined effect of peptides and antibiotics, a checkerboard test was performed. An inoculum of K. pneumoniae at 2 × 10^5 CFU/mL was used for the assay. Serial dilutions of peptides and meropenem were executed, and 10 μL of peptide and antibiotic were added into the 96-well plate, individually and/or in combination. The plate was incubated for 24 h to 37°C and the combinatorial effect was calculated as an index of fractional inhibitory concentration (FICI) with the following formula ([Giugliano et al., 2023]).
FICI=MICmeropenem in combination/MICmeropenem+MICpeptide in combination/MICpeptide
• FICI ≤ 0.5, synergy. • 0.5 < FICI ≤ 1.0, partial synergy. • […], no interaction. • FICI > 4.0, antagonism.

K. pneumoniae ATCC 10031 = experiment: Broth microdilution MIC/MBC; type: cell-based, Klebsiella pneumoniae; conditions: reference strain ATCC 10031; for MIC: broth microdilution, 1 × 10^5 CFU/mL, concentration inhibiting 95% bacterial growth, triplicate; for MBC: lowest concentration killing 99.9% of the bacterial load after 18 h at 37°C on MHA
Description: (§1) Antibacterial activity of peptides was conducted against a panel of bacterial strains both Gram-positive (Staphylococcus aureus ATCC 6538, Enterococcus faecalis ATCC 29212, Listeria monocytogenes MB 677), and Gram-negative (E. coli ATCC 11229, K. pneumoniae ATCC 10031, Pseudomonas aeruginosa O1, Burkordelia cepacea LGM16656). The analysis has been extended to clinical isolates of K. pneumoniae carbapenemases producers isolated and characterized at the Microbiology Laboratory of the University Hospital “Luigi Vanvitelli,” Naples, Italy, using a BD Phoenix M50 instrument (Becton, Dickinson and Company, Franklin Lakes, NJ, USA) and listed in Table 1. The test was carried out as reported elsewhere ([Folliero et al., 2022]). The final bacterial concentration inoculated in the 96-well plate was 1 × 10^5 CFU/mL. Vancomycin (5 μg/mL) and meropenem (10 μg/mL) (Burlington, MA, USA) were used as positive control (CTRL+) against Gram-positive and Gram-negative bacteria, respectively.
(§2) The concentration of peptides inhibiting 95% bacterial growth was recorded as MIC. After setting the MIC value, 50 μL were taken from the 2MIC, 1MIC, and ½ MIC and spotted on MHA. The plates were incubated for 18 h at 37°C. The number of colony-forming units was calculated, and MBC was recorded as the lowest concentration of peptide capable of killing 99.9% of the bacterial load after 18 h of incubation.

[1] = system: Pseudomonas aeruginosa O1; experiment: Broth microdilution MIC/MBC; type: cell-based; conditions: 1 × 10^5 CFU/mL, concentration inhibiting 95% bacterial growth, triplicate
Description: as §1, §2

[2] = system: Staphylococcus aureus ATCC 6538; experiment: Broth microdilution MIC/MBC; type: cell-based; conditions: for MIC: broth microdilution, 1 × 10^5 CFU/mL, concentration inhibiting 95% bacterial growth, triplicate; for MBC: lowest concentration killing 99.9% of the bacterial load after 18 h at 37°C on MHA
Description: as §1, §2

E. coli ATCC 11229 = experiment: Broth microdilution MIC/MBC; type: cell-based; conditions: for MIC: broth microdilution, 1 × 10^5 CFU/mL, concentration inhibiting 95% bacterial growth, triplicate; for MBC: lowest concentration killing 99.9% of the bacterial load after 18 h at 37°C on MHA
Description: as §1, §2

[3] = system: Listeria monocytogenes MB 677; experiment: Broth microdilution MIC/MBC; type: cell-based; conditions: for MIC: broth microdilution, 1 × 10^5 CFU/mL, concentration inhibiting 95% bacterial growth, triplicate; for MBC: lowest concentration killing 99.9% of the bacterial load after 18 h at 37°C on MHA
Description: as §1, §2

[4] = system: Burkordelia cepacea LGM16656 (B. cepacia); experiment: Broth microdilution MIC/MBC; type: cell-based; conditions: for MIC: broth microdilution, 1 × 10^5 CFU/mL, concentration inhibiting 95% bacterial growth, triplicate
Description: as §1, §2

[5] = system: Enterococcus faecalis ATCC 29212; experiment: Broth microdilution MIC/MBC; type: cell-based; conditions: for MIC: broth microdilution, 1 × 10^5 CFU/mL, concentration inhibiting 95% bacterial growth, triplicate; for MBC: lowest concentration killing 99.9% of the bacterial load after 18 h at 37°C on MHA
Description: as §1, §2

[6] = system: K. pneumoniae 1746 (VIM, class B); experiment: Broth microdilution MIC/MBC, clinical isolate; type: cell-based, Klebsiella pneumoniae; conditions: clinical isolate 1746, VIM; for MIC: rectal swab, broth microdilution, 95% growth inhibition
Description: as §1, §2

[7] = Stability of peptides in serum; type: in vitro ADME; conditions: 2.0 mg/mL peptide, 37°C; for remaining at 16 h, 2 mg/mL: RP-HPLC peak area vs t0 (100%), mean of duplicates, read-out: Peptide remaining in solution after 16 h in serum
Description: Peptide stability in serum was performed as previously reported ([Russo et al., 2021]). Briefly, peptides were diluted in serum to a final concentration of 2.0 mg/mL and incubated at 37°C. Aliquots of each peptide taken at different times up to 16 h were analyzed by RP-HPLC on an Aeris PEPTIDE XB-C18 column (2.1 × 100 mm, 3.6 μm). Peptide concentrations in solution were determined from RP-HPLC peak areas compared to peak areas obtained at t0 (set as 100%).

S. thyphimurium = experiment: Broth microdilution MIC/MBC; type: cell-based; conditions: for MIC: broth microdilution, 1 × 10^5 CFU/mL, concentration inhibiting 95% bacterial growth, triplicate; for MBC: lowest concentration killing 99.9% of the bacterial load after 18 h at 37°C on MHA
[8] = system: HaCaT cell line (human keratinocytes cells); experiment: MTT cytotoxicity on HaCaT cells; type: cell-based; conditions: 100 μM, 24 h
Description: Peptides cytotoxicity was evaluated on the HaCaT cell line (human keratinocytes cells) obtained from the CLS–Cell Lines Service (Eppelheim, Germany). The cell monolayer was treated with different peptide concentrations from 3 to 100 μM for 24 h. Then, methylthiazolyldiphenyl-tetrazolium bromide (MTT) (Sigma-Aldrich, St. Louis, MO, USA) assay was performed as already reported ([Ambrosino et al., 2023]). Untreated cells represented positive control (CTRL+), while cells treated with 100% DMSO represented negative control (CTRL−). Absorbance was recorded at 570 nm, and cell viability was calculated with Equation 1:
(1) %ofcellviability=absorbanceoftreatedcells/absorbanceofuntreatedcellsx100

[9] = system: K. pneumoniae 1745 (KPC, class A); experiment: Broth microdilution MIC/MBC, clinical isolate; type: cell-based, Klebsiella pneumoniae; conditions: clinical isolate 1745, KPC; for MIC: ulcer, broth microdilution, 95% growth inhibition; for MBC: killing 99.9% after 18 h
Description: as §1, §2

[10] = system: K. pneumoniae 1711 (KPC, class A); experiment: Broth microdilution MIC/MBC, clinical isolate; type: cell-based, Klebsiella pneumoniae; conditions: clinical isolate 1711, KPC; for MIC: rectal swab, broth microdilution, 95% growth inhibition
Description: as §1, §2

[11] = system: K. pneumoniae 311 (OXA-48, class D); experiment: Broth microdilution MIC/MBC, clinical isolate; type: cell-based, Klebsiella pneumoniae
Description: as §1, §2

[12] = system: several strains of K. pneumoniae KPC-producers; experiment: MIC/MBC summarised over the clinical isolates; type: cell-based, Klebsiella pneumoniae; conditions: summary over strains 311, 1746, 1745, 1711
Description: as §1, §2

C[C@@H](O)[C@H]1C(=O)N2C(C(=O)O)=C(S[C@@H]3CN[C@H](C(=O)N(C)C)C3)[C@H](C)[C@H]12 [meropenem]
MIC (K. pneumoniae; Klebsiella pneumoniae, checkerboard, 2 × 10^5 CFU/mL, 24 h, 37°C, read-out: MIC of meropenem alone): 5 µg/mL
MIC of meropenem in combination (K. pneumoniae; combined with 3 μM of pantinin 1, checkerboard, 24 h, 37°C): 0.62 µg/mL

FLSTIWNGIKSLL-NH2 [Pantinin 3]
MIC (K. pneumoniae ATCC 10031): 25 µM
MIC [1]: 50 µM
MIC [2]: 12.5 µM
MIC (E. coli ATCC 11229): 50 µM
MIC [3]: 25 µM
MIC [4]: 50 µM
MIC [5]: 25 µM
MBC [5]: 25 µM
MIC [6]: 50 µM
remaining at 16 h, 2 mg/mL [7]: ~80%
MIC (S. thyphimurium): 50 µM
Cell viability [8]: 10%

GILGKLWEGFKSIV-NH2 [Pantinin 1]
MIC (K. pneumoniae ATCC 10031): 6.25 µM
MBC (K. pneumoniae ATCC 10031): 12.5 µM
FICI (K. pneumoniae; pantinin 1 (3 μM) with meropenem (0.62 μg/mL)): 0.624
MIC [1]: 50 µM
MIC [2]: 6.25 µM
MBC [2]: 6.25 µM
MIC (E. coli ATCC 11229): 12.5 µM
MBC (E. coli ATCC 11229): 25 µM
MIC [3]: 6.25 µM
MBC [3]: 12.5 µM
MIC [4]: 25 µM
MBC ([4]; lowest concentration killing 99.9% of the bacterial load after 18 h at 37°C on MHA): 25 µM
MIC [5]: 12.5 µM
MBC [5]: 25 µM
MIC [9]: 25 µM
MBC [9]: 25 µM
MIC [6]: 25 µM
MIC [10]: 25 µM
MBC ([10]; killing 99.9% after 18 h): 25 µM
MIC ([11]; clinical isolate 311, OXA-48, rectal swab, broth microdilution, 95% growth inhibition): 25 µM
MBC ([11]; clinical isolate 311, OXA-48, killing 99.9% after 18 h): 25 µM
MIC against the tested clinical K. pneumoniae strains [12]: 25 µM
Stability in serum in the time interval analysed ([7]; up to 16 h, RP-HPLC peak area vs t0, duplicates): stable
MIC (S. thyphimurium): 50 µM
MBC (S. thyphimurium): 50 µM
Cell viability [8]: approximately 70%

IFGAIWKGISSLL-NH2 [Pantinin 2]
MIC (K. pneumoniae ATCC 10031): 12.5 µM
MBC (K. pneumoniae ATCC 10031): 12.5 µM
MIC [1]: 50 µM
MIC [2]: 12.5 µM
MBC [2]: 12.5 µM
MIC (E. coli ATCC 11229): 25 µM
MBC (E. coli ATCC 11229): 25 µM
MIC [3]: 6.25 µM
MBC [3]: 12.5 µM
MIC [4]: 50 µM
MIC [5]: 12.5 µM
MBC [5]: 12.5 µM
MIC [9]: 50 µM
MBC [9]: 50 µM
MIC [6]: 25 µM
MBC ([6]; killing 99.9% after 18 h): 50 µM
MIC [10]: 50 µM
remaining at 16 h, 2 mg/mL [7]: ~70%
MIC (S. thyphimurium): 50 µM
MBC (S. thyphimurium): 50 µM
Cell viability [8]: 25%
